For this test, the system named is pro-inflammatory cytokine IL-6. Briefly: Test 1: IL-6 secretion by stress-induced senescent fibroblasts (ELISA). In kind it is cell-based, human. How it is done:
Experimentally, the test was carried out on primary human fibroblasts (abbreviation “NHDF” for “Normal Human Dermal Fibroblasts”) isolated from breast plastic surgery from a patient. These NHDFs were cultured in a complete “DMEM” culture medium (with 4.5 g/l of glucose and 10% of fetal calf serum (FCS)), then maintained in an atmosphere at 37° C. and 10% of CO2. On D-2, the fibroblasts were seeded in 6-well plates at a rate of 1.10^4 cells/cm^2. On D0, the fibroblasts were subjected to stress inducing premature senescence ([…] hydrogen peroxide, H2O2, for 2 hours), then incubated at 37° C. and 10% CO2 for 72 hours in order to leave senescence settle. On D+3, these senescent fibroblasts induced by such stress (abbreviation “SIPS-fibro” for “Stress-Induced Premature Senescent-fibroblasts”) were incubated for 24 hours in the presence of different weight ratios of wogonin to baicalein (abbreviation “W/B”) of synthetic origin. On D+4, the culture supernatants were harvested in order to perform an ELISA assay for the pro-inflammatory cytokine IL-6 (“R&DSystem kit, ref. D6050”). The results obtained were then normalized with respect to the quantity of cells per condition and subjected to statistical analysis in triplicate. The results are collated in Table 1 below, in particular expressed as % inhibition of IL-6 secretion relative to the senescent control.
(In general: In an ELISA, binding on a coated surface is turned into a signal by an enzyme label.)

In the case of `COc1c(O)cc(O)c2c(=O)cc(-c3ccccc3)oc12` [wogonine, 5,7-dihydroxy-8-methoxyflavone], the “% inhibition of IL-6 secretion” value (relative to the senescent control, senescent NHDF, 24 hours) is listed as −10%. Moreover, the “Amount of IL-6 secreted” value (senescent NHDF (H2O2 stress), incubated 24 hours with compound, ELISA) came to 9.1 ng/10^6 cells.
